{"source": "patent US9908872B2", "about": "“Methods to treat lymphoplasmacytic lymphoma” (Dana-Farber Cancer Institute, Inc., priority 2013, dated 2018)", "key": {"OCI-Ly3": {"tested_on": "OCI-Ly3", "experiment": "CellTiter-Glo cell viability assay", "assay_type": "cell-based", "conditions": "Homo sapiens, 72 hours, cell survival", "description": "(§1) CellTiter-Glo® Luminescent cell viability assay (Promega) was used to assess cell survival following treatment with the compounds described. Cells were seeded into 384 well plates with the EL406 Combination Washer Dispenser (BioTek Instruments, Inc.), and the compounds were injected into the cells culture media with the JANUS Automated Workstation (PerkinElmer Inc.). Cells were treated with a series diluted inhibitors (20˜0.04 μM) for 72 hours at 37° C. Luminescent measurement is performed using the 2104 Envision® Multilabel Reader (PerkinElmer Inc.)."}, "Ramos": {"tested_on": "Ramos", "experiment": "CellTiter-Glo cell viability assay", "assay_type": "cell-based", "conditions": "72 hours, cell survival", "description": "as §1"}, "BCWM.1": {"tested_on": "BCWM.1", "experiment": "CellTiter-Glo cell viability assay", "assay_type": "cell-based", "conditions": "72 hours, cell survival", "description": "as §1"}, "RPCIWM-1": {"tested_on": "RPCIWM-1", "experiment": "CellTiter-Glo cell viability assay", "assay_type": "cell-based", "conditions": "72 hours, cell survival", "description": "as §1"}, "MWCL-1": {"tested_on": "MWCL-1", "experiment": "CellTiter-Glo cell viability assay", "assay_type": "cell-based", "conditions": "72 hours, cell survival", "description": "as §1"}, "OCI-Ly19": {"tested_on": "OCI-Ly19", "experiment": "CellTiter-Glo cell viability assay", "assay_type": "cell-based", "conditions": "72 hours, cell survival", "description": "as §1"}, "CDK11, CDK8": {"tested_on": "CDK11, CDK8", "experiment": "KiNativ profiling, A375 cells", "assay_type": "binding, Homo sapiens", "conditions": "1 μM, labeling site Lys2"}, "PKD1, PKD2": {"tested_on": "PKD1, PKD2", "experiment": "KiNativ profiling, A375 cells", "assay_type": "binding, Homo sapiens", "conditions": "1 μM, labeling site Lys2"}, "MAP2K1, MAP2K2": {"tested_on": "MAP2K1, MAP2K2", "experiment": "KiNativ profiling, A375 cells", "assay_type": "binding, Homo sapiens", "conditions": "1 μM, labeling site Lys2"}, "FYN, SRC, YES": {"tested_on": "FYN, SRC, YES", "experiment": "KiNativ profiling, A375 cells", "assay_type": "binding, Homo sapiens", "conditions": "1 μM, labeling site Activation Loop"}, "ZAK": {"tested_on": "ZAK", "assay_type": "binding, Homo sapiens"}, "JNK1, JNK2, JNK3": {"tested_on": "JNK1, JNK2, JNK3", "experiment": "KiNativ profiling, A375 cells", "assay_type": "binding, Homo sapiens", "conditions": "1 μM, labeling site Lys2"}, "p38d, p38g": {"tested_on": "p38d, p38g", "experiment": "KiNativ profiling, A375 cells", "assay_type": "binding, Homo sapiens", "conditions": "1 μM, labeling site Lys2"}, "IKKe, TBK1": {"tested_on": "IKKe, TBK1", "experiment": "KiNativ profiling, A375 cells", "assay_type": "binding, Homo sapiens", "conditions": "1 μM, labeling site Lys2"}, "TAO1, TAO3": {"tested_on": "TAO1, TAO3", "experiment": "KiNativ profiling, A375 cells", "assay_type": "binding, Homo sapiens", "conditions": "1 μM, labeling site Lys2"}, "MAP3K2, MAP3K3": {"tested_on": "MAP3K2, MAP3K3", "experiment": "KiNativ profiling, A375 cells", "assay_type": "binding, Homo sapiens", "conditions": "1 μM, labeling site Lys2"}, "MST4, YSK1": {"tested_on": "MST4, YSK1", "experiment": "KiNativ profiling, A375 cells", "assay_type": "binding, Homo sapiens", "conditions": "1 μM, labeling site Lys2"}, "MARK1, MARK2": {"tested_on": "MARK1, MARK2", "experiment": "KiNativ profiling, A375 cells", "assay_type": "binding, Homo sapiens", "conditions": "1 μM, labeling site Lys1"}, "AMPKa1, AMPKa2": {"tested_on": "AMPKa1, AMPKa2", "experiment": "KiNativ profiling, A375 cells", "assay_type": "binding, Homo sapiens", "conditions": "1 μM, labeling site Lys1"}, "PITSLRE": {"tested_on": "PITSLRE", "experiment": "KiNativ profiling, A375 cells", "assay_type": "binding, Homo sapiens", "conditions": "1 μM, labeling site Lys2"}, "[1]": {"tested_on": "ZC1/HGK, ZC2/TNIK, ZC3/MINK", "experiment": "KiNativ profiling, A375 cells", "assay_type": "binding, Homo sapiens", "conditions": "1 μM, labeling site Lys2"}, "[2]": {"tested_on": "CaMK2a, CaMK2b, CaMK2d, CaMK2g", "experiment": "KiNativ profiling, A375 cells", "assay_type": "binding, Homo sapiens", "conditions": "1 μM, labeling site Lys2"}, "LYN": {"tested_on": "LYN", "assay_type": "binding, Homo sapiens"}, "ROCK1, ROCK2": {"tested_on": "ROCK1, ROCK2", "experiment": "KiNativ profiling, A375 cells", "assay_type": "binding, Homo sapiens", "conditions": "1 μM, labeling site Lys2"}, "NEK6, NEK7": {"tested_on": "NEK6, NEK7", "experiment": "KiNativ profiling, A375 cells", "assay_type": "binding, Homo sapiens", "conditions": "1 μM, labeling site Lys2"}, "MARK2, MARK3": {"tested_on": "MARK2, MARK3", "experiment": "KiNativ profiling, A375 cells", "assay_type": "binding, Homo sapiens", "conditions": "1 μM, labeling site Lys2"}, "ABL, ARG": {"tested_on": "ABL, ARG", "experiment": "KiNativ profiling, A375 cells", "assay_type": "binding, Homo sapiens", "conditions": "1 μM, labeling site Activation Loop"}}, "note": "Values joined by “and” are separate entries in the source; they are usually repeats but may differ in a detail not shown here. Identical values can stand only once."}
{"molecule": "CCN1CCN(Cc2ccc(NC(=O)c3ccc(Cl)c(NC(=O)c4cncc(-c5cccs5)c4)c3)cc2C(F)(F)F)CC1", "note": "[I-2, N-(2-chloro-5-((4-((4-ethylpiperazin-1-yl)methyl)-3-(trifluoromethyl)phenyl)carbamoyl)phenyl)-5-(thiophen-2-yl)nicotinamide]", "values": [{"measurement": "EC50", "setting": "OCI-Ly3", "value": 161, "unit": "nM"}, {"measurement": "EC50", "setting": "Ramos; Homo sapiens, Ramos", "value": 60, "unit": "nM"}, {"measurement": "EC50", "setting": "BCWM.1; BCWM1", "value": 12, "unit": "nM"}, {"measurement": "EC50", "setting": "RPCIWM-1", "value": 110, "unit": "nM"}, {"measurement": "EC50", "setting": "MWCL-1", "value": 16, "unit": "nM"}]}
{"molecule": "CCN1CCN(Cc2ccc(NC(=O)c3ccc(C)c(NC(=O)c4cncc(-c5cnn(C)c5)c4)c3)cc2C(F)(F)F)CC1", "note": "[I-9]", "values": [{"measurement": "EC50", "setting": "Ramos", "value": 7470, "unit": "nM"}, {"measurement": "EC50", "setting": "BCWM.1", "value": "542 nM and 305 nM"}, {"measurement": "EC50", "setting": "OCI-Ly19", "value": 2650, "unit": "nM"}, {"measurement": "EC50", "setting": "MWCL-1", "value": "294 nM and 281 nM"}]}
{"molecule": "Cc1ccc(C(=O)Nc2cccc(C(C)(C)C#N)c2)cc1NC(=O)c1cncc(-c2cccs2)c1", "note": "[I-6, N-(5-((3-(2-cyanopropan-2-yl)phenyl)carbamoyl)-2-methylphenyl)-5-(thiophen-2-yl)nicotinamide]", "values": [{"measurement": "KiNativ inhibition of CDK11, CDK8", "setting": "CDK11, CDK8", "value": 20.7, "unit": "%"}, {"measurement": "KiNativ inhibition of PKD1, PKD2", "setting": "PKD1, PKD2", "value": -2.5, "unit": "%"}, {"measurement": "KiNativ inhibition of MAP2K1, MAP2K2", "setting": "MAP2K1, MAP2K2", "value": 4.1, "unit": "%"}, {"measurement": "KiNativ inhibition of FYN, SRC, YES", "setting": "FYN, SRC, YES", "value": 55.7, "unit": "%"}, {"measurement": "KiNativ inhibition of ZAK", "setting": "ZAK", "value": ">95", "unit": "%"}, {"measurement": "KiNativ inhibition of JNK1, JNK2, JNK3", "setting": "JNK1, JNK2, JNK3", "value": 11.7, "unit": "%"}, {"measurement": "KiNativ inhibition of p38d, p38g", "setting": "p38d, p38g", "value": 17.8, "unit": "%"}, {"measurement": "KiNativ inhibition of IKKe, TBK1", "setting": "IKKe, TBK1", "value": 24.8, "unit": "%"}, {"measurement": "KiNativ inhibition of TAO1, TAO3", "setting": "TAO1, TAO3", "value": 11.9, "unit": "%"}, {"measurement": "KiNativ inhibition of MAP3K2, MAP3K3", "setting": "MAP3K2, MAP3K3", "value": -15.3, "unit": "%"}, {"measurement": "KiNativ inhibition of MST4, YSK1", "setting": "MST4, YSK1", "value": 22, "unit": "%"}, {"measurement": "KiNativ inhibition of MARK1, MARK2", "setting": "MARK1, MARK2", "value": -4.9, "unit": "%"}, {"measurement": "KiNativ inhibition of AMPKa1, AMPKa2", "setting": "AMPKa1, AMPKa2", "value": 15.3, "unit": "%"}, {"measurement": "KiNativ inhibition of PITSLRE", "setting": "PITSLRE", "value": 1.9, "unit": "%"}, {"measurement": "KiNativ inhibition of ZC1/HGK, ZC2/TNIK, ZC3/MINK", "setting": "[1]", "value": 27, "unit": "%"}, {"measurement": "KiNativ inhibition of CaMK2a, CaMK2b, CaMK2d, CaMK2g", "setting": "[2]", "value": 0.7, "unit": "%"}, {"measurement": "KiNativ inhibition of LYN", "setting": "LYN", "value": 87.6, "unit": "%"}, {"measurement": "KiNativ inhibition of ROCK1, ROCK2", "setting": "ROCK1, ROCK2", "value": 12.7, "unit": "%"}, {"measurement": "KiNativ inhibition of NEK6, NEK7", "setting": "NEK6, NEK7", "value": -3.7, "unit": "%"}, {"measurement": "KiNativ inhibition of MARK2, MARK3", "setting": "MARK2, MARK3", "value": 17.2, "unit": "%"}, {"measurement": "KiNativ inhibition of ABL, ARG", "setting": "ABL, ARG", "value": ">90", "unit": "%"}]}
{"molecule": "CCN1CCN(Cc2ccc(NC(=O)c3ccc(C)c(NC(=O)c4cncc(-c5cnoc5)c4)c3)cc2C(F)(F)F)CC1", "note": "[I-8]", "values": [{"measurement": "EC50", "setting": "Ramos", "value": 329, "unit": "nM"}, {"measurement": "EC50", "setting": "OCI-Ly19", "value": 56, "unit": "nM"}]}
